Consider 30 compounds from patent US20250332173A1, “COMPOUNDS AND METHODS FOR MODULATING NUCLEIC ACID SPLICING” (REMIX THERAPEUTICS INC., priority 2021, published 2025).

pIC50: −log10 of the molar value. Counter-ions that a name gives are not always drawn.

One may read the pIC50 as the negative decadic logarithm of the IC50, by convention in mol/L.

Common to all, as to type: cell-based, human
Assay [1] deals with Target C. Nature of the assay: HiBiT protein abundance assay, Target C (Promega Nano-Glo HiBiT Lytic Detection System, knock-in K562 cell line). To be noted: Homo sapiens, K562, 24 h, HiBiT K562 cell line, 24 hours, top dose 10 μM; read-out: Effect on protein abundance, Target C (IC50 category). The method, boiled down:
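Protein abundance was read by Nano-Glo HiBiT lytic luminescence after 24 h compound exposure (10-point, threefold series from 10 μM final) of HiBiT knock-in K562 cells. Parental K562 served as baseline; the 50%-abundance concentration was interpolated from a four-parameter logistic fit.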
(The HiBiT peptide binds its large partner to form an active luciferase.)

Assay [2] relates to Target C. Nature of the assay: RT-qPCR splicing assay panel, Target C canonical junction (CJ) mRNA. The note with it: Homo sapiens; Table 5 panel; canonical junction qPCR; compound concentration having 50% response in CJ decrease; read-out: Target C IC50 (decrease in CJ mRNA levels). The method, boiled down: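 Cells are plated (A673 allowed 24 h to adhere), dosed with an 11-point 3-fold series topping at 10 uM final, and incubated 24 h at 37 °C. Lysis is followed by cDNA synthesis and qPCR of the CJ transcript, normalized to a housekeeping gene.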

The subject of the next assay is MYB. Nature of the assay: HiBiT protein abundance assay, MYB HiBiT K562 cell line. To be noted: HiBiT K562 cell line, 24 hours, top dose 10 μM; read-out: Effect on protein abundance, MYB (IC50 category). Summed up: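 Tagged-protein abundance measured by split-NanoBiT luminescence after lysis, following 24 h compound exposure (37° C; 10 μM top, 3-fold, 10 points; DMSO ≤0.25%) of HiBiT knock-in K562 cells. Percent response vs DMSO and unmodified-cell controls; 4-parameter logistic interpolation at 50% gave IC50.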

Consider `CNC(=O)Cc1cc(-c2ccc3c(=O)n(C4CCNCC4)ccc3c2)nn2cc(C)nc12` [Compound 534, N-methyl-2-[2-methyl-6-[1-oxo-2-(4-piperidyl)-6-isoquinolyl]imidazo[1,2-b]pyridazin-8-yl]acetamide], for which the pIC50 with Target C [1] was 5.00 to 6.00; in the assay on Target C [2], 5.00 to 6.00; with MYB, 6.00 to 7.00.
Turning to `Cc1cn2nc(-c3ccc4c(=O)n(C5CCNCC5)ccc4c3)cc(Cc3nnc[nH]3)c2n1` [Compound 535, 6-[2-methyl-8-(4H-1,2,4-triazol-3-ylmethyl)imidazo[1,2-b]pyridazin-6-yl]-2-(4-piperidyl) isoquinolin-1-one], the pIC50 is 5.00 to 6.00 with Target C [1], less than 5.00 in the assay with Target C [2] and 5.00 to 6.00 in the assay on MYB.
As to `Cc1cn2nc(-c3ccc4c(=O)n(C5CCNCC5)ccc4c3)cc(Cc3nnn[nH]3)c2n1` [Compound 536, 6-[2-methyl-8-(1H-tetrazol-5-ylmethyl)imidazo[1,2-b]pyridazin-6-yl]-2-(4-piperidyl) isoquinolin-1-one], the pIC50 in the assay with Target C [1], in the assay with Target C [2] and with MYB was less than 5.00 in each case.
On to `CCN1CCC(n2ncc3cc(-c4cc(C)c5nc(C)cn5n4)cc(F)c3c2=O)CC1` [Compound 537], for which the negative-log IC50 (pIC50) with Target C [1], in the assay with Target C [2] and in the assay with MYB was 6.00 to 7.00 in each case.
For `Cc1cn2nc(-c3cc(F)c4c(=O)n(C5CCN(CCF)CC5)ncc4c3)cc(C)c2n1` [Compound 538], the pIC50 with Target C [1], in the assay on Target C [2] and in the assay with MYB was 6.00 to 7.00 throughout.
In the case of `Cc1cn2nc(-c3cc(F)c4c(=O)n(C5CCN(C)CC5)ncc4c3)cc(C)c2n1` [Compound 539], the figures for the pIC50 in the assay on Target C [1], in the assay with Target C [2] and in the assay with MYB were greater than 7.00, 6.00 to 7.00 and greater than 7.00, respectively.
Consider `Cc1cn2nc(-c3cc(F)c4c(=O)n(C5CCNCC5)ncc4c3)cc(C)c2n1` [Compound 540], for which the pIC50 in the assay with Target C [1], in the assay with Target C [2] and in the assay with MYB was greater than 7.00 in each case.
As to `Cc1cn2nc(-c3cc(O)c4c(=O)n(C5CCNCC5)ncc4c3)cc(C)c2n1` [Compound 541], the pIC50 with Target C [1], in the assay with Target C [2] and with MYB was greater than 7.00 each time.
For `CCN1CCC(n2ncc3cc(-c4cc(C)c5nc(C)cn5n4)cc(O)c3c2=O)CC1` [Compound 542], the pIC50 is greater than 7.00 in the assay on Target C [1], 6.00 to 7.00 in the assay with Target C [2] and greater than 7.00 with MYB.
On to `Cc1cn2nc(-c3cc(O)c4c(=O)n(C5CCN(C)CC5)ncc4c3)cc(C)c2n1` [Compound 543], for which the pIC50 with Target C [1], in the assay with Target C [2] and with MYB was 6.00 to 7.00 throughout.
Take `Cc1cn2nc(-c3ccc4c(=O)n(C5CCNCC5)ccc4c3)cc(Oc3ccccc3F)c2n1` [Compound 544, 6-[8-(2-fluorophenoxy)-2-methyl-imidazo[1,2-b]pyridazin-6-yl]-2-(4-piperidyl) isoquinolin-1-one; hydrochloride]: the pIC50 in the assay with Target C [1], in the assay with Target C [2] and with MYB was greater than 7.00 throughout.
In the case of `Cc1cn2nc(-c3ccc4c(=O)n(C5CCNCC5)ccc4c3)cc(Oc3cccc(F)c3)c2n1` [Compound 545, 6-[8-(3-fluorophenoxy)-2-methyl-imidazo[1,2-b]pyridazin-6-yl]-2-(4-piperidyl)isoquinolin-1-one; hydrochloride], the pIC50 in the assay on Target C [1], with Target C [2] and in the assay on MYB was greater than 7.00 in each case.
Consider `Cc1cn2nc(-c3ccc4c(=O)n(C5CCNCC5)ccc4c3)cc(Oc3ccc(F)cc3)c2n1` [Compound 546, 6-[8-(4-fluorophenoxy)-2-methyl-imidazo[1,2-b]pyridazin-6-yl]-2-(4-piperidyl) isoquinolin-1-one; hydrochloride], for which the negative logarithm of the IC50 (pIC50) in the assay with Target C [1], in the assay on Target C [2] and with MYB was greater than 7.00 each time.
Turning to `COc1cccc(Oc2cc(-c3ccc4c(=O)n(C5CCNCC5)ccc4c3)nn3cc(C)nc23)c1` [Compound 547, 6-[8-(3-methoxyphenoxy)-2-methyl-imidazo[1,2-b]pyridazin-6-yl]-2-(4 piperidyl) isoquinolin-1-one], the pIC50 in the assay on Target C [1], in the assay with Target C [2] and in the assay on MYB was greater than 7.00 throughout.
For `Cc1cn2nc(-c3cc(F)c4c(=O)n(C5CCNCC5)ncc4c3)cc(Oc3ccccc3)c2n1` [Compound 548, 8-fluoro-6-(2-methyl-8-phenoxy-imidazo[1,2-b]pyridazin-6-yl)-2-(4-piperidyl)phthala-zin-1-one], the pIC50 in the assay with Target C [1], in the assay with Target C [2] and in the assay with MYB was greater than 7.00 each time.
Consider `Cc1cn2nc(-c3ccc4c(=O)n(C5CCNCC5)ncc4c3)cc(Oc3ccccc3)c2n1` [Compound 549, 6-(2-methyl-8-phenoxy-imidazo[1,2-b]pyridazin-6-yl)-2-(4-piperidyl) phthalazin-1-one], for which the pIC50 with Target C [1] is greater than 7.00; in the assay on Target C [2] it was 6.00 to 7.00; with MYB it was greater than 7.00.
Turning to `Cc1cn2nc(-c3ccc4c(=O)n(C5CCNCC5)ccc4c3)cc(Oc3cccnc3)c2n1` [Compound 550, 6-[2-methyl-8-(3-pyridyloxy)imidazo[1,2-b]pyridazin-6-yl]-2-(4-piperidyl)isoquinolin-1-one], the pIC50 with Target C [1], with Target C [2] and with MYB was greater than 7.00 each time.
Regarding `Cc1cn2nc(-c3ccc4c(=O)n(C5CCNCC5)ccc4c3)cc(-n3ccc(=O)cc3)c2n1` [Compound 551, 6-[2-methyl-8-(4-oxo-1-pyridyl)imidazo[1,2-b]pyridazin-6-yl]-2-(4-piperidyl)isoquinolin-1-one], the pIC50 in the assay on Target C [1], in the assay with Target C [2] and in the assay on MYB was 6.00 to 7.00 throughout.
For `Cc1cn2nc(-c3ccc4c(=O)n(C5CCNCC5)ccc4c3)cc(-n3ccccc3=O)c2n1` [Compound 552, 6-[2-methyl-8-(2-oxo-1-pyridyl)imidazo[1,2-b]pyridazin-6-yl]-2-(4-piperidyl)isoquinolin-1-one], the results for the negative logarithm of the IC50 (pIC50) in the assay on Target C [1], in the assay with Target C [2] and in the assay on MYB were less than 5.00, less than 5.00 and 5.00 to 6.00, respectively.
As for `Cc1cn2nc(-c3cc(O)c4c(=O)n(C5CCN(CCF)CC5)ncc4c3)cc(C)c2n1` [Compound 553], the pIC50 with Target C [1], in the assay on Target C [2] and in the assay on MYB was 6.00 to 7.00 each time.
Consider `Cc1cc(-c2cc(F)c3c(=O)n(C4CCNC5(CC5)C4)ncc3c2)cc2cn(C)nc12` (stereo not drawn) [Compound 554], for which the pIC50 in the assay on Target C [1], with Target C [2] and with MYB was 6.00 to 7.00 in each case.
In the case of `Cc1nc2c(C)cc(-c3cc(F)c4c(=O)n(C5CCNC6(CC6)C5)ncc4c3)cc2o1` (stereo not drawn) [Compound 555], the negative-log IC50 (pIC50) with Target C [1], in the assay with Target C [2] and in the assay on MYB was 6.00 to 7.00 throughout.
For the compound `Cc1cn2cc(-c3cc(F)c4c(=O)n(C5CCNC6(CC6)C5)ncc4c3)cc(Cl)c2n1` (stereo not drawn) [Compound 556], the pIC50 with Target C [1] is 6.00 to 7.00; in the assay on Target C [2], 5.00 to 6.00; in the assay on MYB it was 6.00 to 7.00.
For the compound `Cc1cn2cc(-c3cc(O)c4c(=O)n(C5CCNC6(CC6)C5)ncc4c3)cc(Cl)c2n1` (stereo not drawn) [Compound 557], the pIC50 with Target C [1] was 6.00 to 7.00; in the assay with Target C [2] it was 5.00 to 6.00; in the assay on MYB, 6.00 to 7.00.
Turning to `CCc1cn(C2CCNCC2)c(=O)c2c(F)cc(-c3cc(F)c4nc(C)cn4c3)cc12` [Compound 558, 4-ethyl-8-fluoro-6-{8-fluoro-2-methylimidazo[1,2-a]pyridin-6-yl}-2-(piperidin-4-yl)isoquinolin-1-one], the pIC50 is 5.00 to 6.00 in the assay with Target C [1], 5.00 to 6.00 with Target C [2] and 6.00 to 7.00 with MYB.
`C=Cc1cn(C2CCNCC2)c(=O)c2c(F)cc(-c3cc(F)c4nc(C)cn4c3)cc12` [Compound 559, 4-ethenyl-8-fluoro-6-{8-fluoro-2-methylimidazo[1,2-a]pyridin-6-yl}-2-(piperidin-4-yl)isoquinolin-1-one]: the figures for the pIC50 in the assay on Target C [1], in the assay on Target C [2] and in the assay on MYB were 6.00 to 7.00, 6.00 to 7.00 and greater than 7.00, respectively.
Consider `Cc1cn2cc(-c3ccc4c(=O)n(C5CCNCC5)ccc4c3)cc(C#N)c2n1` [Compound 560, 2-methyl-6-[1-oxo-2-(piperidin-4-yl)isoquinolin-6-yl]imidazo[1,2-a]pyridine-8-carbonitrile], for which the negative logarithm of the IC50 (pIC50) with Target C [1] is 6.00 to 7.00; in the assay on Target C [2], 5.00 to 6.00; in the assay on MYB, 6.00 to 7.00.
Consider `Cc1cc(-c2cc(O)c3c(=O)n(C4CCNC5(CC5)C4)ncc3c2)cc2cn(C)nc12` (stereo not drawn) [Compound 561], for which the values for the pIC50 in the assay on Target C [1], in the assay with Target C [2] and in the assay with MYB were 6.00 to 7.00, 5.00 to 6.00 and 6.00 to 7.00, respectively.
On to `Cc1cn2nc(-c3cc4ncn(C5CCNCC5)c(=O)c4cc3F)cc(C)c2n1` [Compound 585, 7-{2,8-dimethylimidazo[1,2-b]pyridazin-6-yl}-6-fluoro-3-(piperidin-4-yl)quinazolin-4-one], for which the pIC50 in the assay with Target C [1], in the assay on Target C [2] and in the assay with MYB was 5.00 to 6.00 throughout.
As for `Cc1cn2cc(-c3cc4ncn(C5CCNCC5)c(=O)c4cc3F)cc(F)c2n1` [Compound 586, 6-fluoro-7-{8-fluoro-2-methylimidazo[1,2-a]pyridin-6-yl}-3-(piperidin-4-yl)quinazolin-4-one], the pIC50 with Target C [1] was 5.00 to 6.00; with Target C [2], 5.00 to 6.00; with MYB, 6.00 to 7.00.
